Converted amounts (≈) assume the structure as drawn. Like-named read-outs stand apart in the source and are kept apart here.
Tests used:
leukemia P-388 = test: Antitumor activity, life span prolongation of mice transplanted intraperitoneally with leukemia P-388 tumor cells; format: in vivo; details: i.p. once daily for 9 consecutive days
Description: (§1) Therapeutic tests were carried out in mice according to NCI-protocols 1,200 and 1,300, Cancer Chemother, Reports, Part 3, 1972, Vol. 3, No. 2, in which leukemia P-388 and melanoma B-16 tumor cells had been intraperitoneally transplanted, compound (I) being administered intraperitoneally once daily for 9 consecutive days.

melanoma B-16 = test: Antitumor activity, life span prolongation of mice transplanted intraperitoneally with melanoma B-16 tumor cells; format: in vivo; details: i.p. once daily for 9 consecutive days
Description: as §1

Tetrahymena pyriformis W = test: Antiprotozoal activity, growth inhibition by the serial dilution method; format: cell-based
Description: Antiprotozoal activity of compound (I) was assayed with Tetrahymena pyriformis W as the test organism and a medium composed of 20 g tryptose-peptone (Difco Co.), 1 g yeast extract, 2 g glucose, 1000 ml distilled water, 10 ml 1 M phosphate buffer (pH 7.0) as the assay medium. The microorganism was incubated at 28° C. for 44 to 48 hours and the growth inhibitory activity of compound (I) was assayed by the serial dilution method.

[1] = Tetrahymena pyriformis, pH 7, read-out: Antiprotozoal activity MIC (minimal inhibitory concentration)

Compound	Antitumor activities P-388 (T/C %) (leukemia P-388; 50 μg/kg)	Antitumor activities P-388 (T/C %) (leukemia P-388; 100 μg/kg)	Antitumor activities P-388 (T/C %) (leukemia P-388; 200 μg/kg)	Antitumor activities P-388 (T/C %) (leukemia P-388; 400 μg/kg)	Antitumor activities B-16 (T/C %) (melanoma B-16; 100 μg/kg)	Antitumor activities B-16 (T/C %) (melanoma B-16; 200 μg/kg)	Antitumor activities B-16 (T/C %) (melanoma B-16; 400 μg/kg)	Antitumor activities B-16 (T/C %) (melanoma B-16; 800 μg/kg)	MIC (Tetrahymena pyriformis W; [1]) [µg/mL]	MIC (Tetrahymena pyriformis W; Tetrahymena pyriformis W, 28° C., 44 to 48 hours, serial dilution method, pH 7.0, read-out: Antiprotozoal activity MIC (minimal inhibitory concentration)) [µg/mL]
COc1cc2cc(c1)N(C)C(=O)CC(OC(=O)[C@H](C)N(C)C(C)=O)C1(C)OC1C(C)C1CC(O)(NC(=O)O1)C(OC)C=CC=C(C)C2 (stereo partly shown) [Dechloromaytansine, dechloromaytansine]	158	165	175	189	171	152	179	190	–	–
COc1cc2cc(c1)N(C)C(=O)CC(OC(=O)CCl)C1(C)OC1C(C)C1CC(O)(NC(=O)O1)C(OC)C=CC=C(C)C2 (stereo not shown) [Dechloromaytansinol 3-chloroacetate, dechloromaytansinol 3-chloroacetate]	–	–	–	–	–	–	–	–	≥ 4	–
COc1cc2cc(c1)N(C)C(=O)CC(OC(=O)C(C)C)C1(C)OC1C(C)C1CC(O)(NC(=O)O1)C(OC)C=CC=C(C)C2 (stereo not shown) [Dechloromaytansinol 3-isobutyrate, dechloromaytansinol 3-isobutyrate]	168	189	193	224	150	152	174	214	–	–
COc1cc2cc(c1)N(C)C(=O)CC(OC(=O)Cc1ccccc1)C1(C)OC1C(C)C1CC(O)(NC(=O)O1)C(OC)C=CC=C(C)C2 (stereo not shown) [Dechloromaytansinol 3-phenylacetate, dechloromaytansinol 3-phenylacetate]	–	–	–	–	–	–	–	–	–	2 (≈ 3.08 µM)
COc1cc2cc(c1)N(C)C(=O)CC(OC(=O)C1CCCCC1)C1(C)OC1C(C)C1CC(O)(NC(=O)O1)C(OC)C=CC=C(C)C2 (stereo not shown) [dechloromaytansinol 3-cyclohexanecarboxylate]	–	–	–	–	–	–	–	–	4 (≈ 6.24 µM)	–

Reference: patent US4256746A, “Dechloromaytansinoids, their pharmaceutical compositions and method of use” (priority 1978, dated 1981)
